According to publication PMC12957839, “Antiviral activity and mechanism of purine morpholine nucleoside analogues incorporating a sulfonamide fragment” (Journal of Advanced Research, 2025):
≈ marks a conversion by molar mass, not a printed value. Where two headings read alike, the source gives them in different places.

Experiments:
Assay type in all cases: in vivo, Pepper mild mottle virus (PMMoV)
PMMoV [1] = assay: Antiviral activity assay against PMMoV, curative activity; set-up: Curative activity: concentration or dose not given beside the values; details: for EC50: Pepper mild mottle virus, read-out: EC50 of curative activity
Procedure: (§1) Virions were isolated and extracted from leaves of N. benthamiana infected with PMMoV referring to the method recorded in the literature. And the inhibiting activities of C1–C38 against PMMoV were assessed with reference to the literature as well [26, 34].

PMMoV [2] = assay: Antiviral activity assay against PMMoV, inactivating activity; details: for pest or weed control at 500 µg/mL / EC50: Pepper mild mottle virus; for pest or weed control at 500 µg/mL: read-out: Inactivating activity; for EC50: read-out: EC50 of inactivating activity
Procedure: as §1

PMMoV [3] = assay: Antiviral activity assay against PMMoV, protective activity; set-up: Protective activity: concentration or dose not given beside the values; details: for EC50: Pepper mild mottle virus, read-out: EC50 of protective activity
Procedure: as §1

[4] = against PMMoV, average of three replicates, ± standard deviation
[5] = against PMMoV, at 500 µg/mL, average of three replicates, ± standard deviation

Row | Structure (SMILES) | EC50 (PMMoV [1]; [4]) | EC50 (PMMoV [2]; [4]) | EC50 (PMMoV [3]; [4]) | Curative activity (PMMoV [1]; [4]) | pest or weed control at 500 µg/mL (PMMoV [2]; [5]) | Protective activity (PMMoV [3]; [4]) | EC50 (PMMoV [1]) | EC50 (PMMoV [2]) | pest or weed control at 500 µg/mL (PMMoV [2]) | EC50 (PMMoV [3]) | Inactivating activity (PMMoV [2]; [5])
1 | CC(=O)OCC1OC(n2cnc3c(N4CCOCC4)ncnc32)C(NS(=O)(=O)c2ccccc2[N+](=O)[O-])C(OC(C)=O)C1OC(C)=O (centres unmarked) [C6] | 132 ± 9.4 µg/mL (≈ 194 µM) | 182 ± 7.8 µg/mL (≈ 268 µM) | 358 ± 12.3 µg/mL (≈ 528 µM) | 67.0 ± 4.9% | 60.8 ± 1.9% | 52.0 ± 2.3% | – | – | – | – | –
2 | CC(=O)OCC1OC(n2cnc3c(N4CCOCC4)ncnc32)C(NS(=O)(=O)c2ccc(OC(F)(F)F)cc2)C(OC(C)=O)C1OC(C)=O (centres unmarked) [C33] | 32 ± 1 µg/mL (≈ 44.7 µM) | 176 ± 11.3 µg/mL (≈ 246 µM) | 305 ± 12.2 µg/mL (≈ 426 µM) | 71.5 ± 4.4% | 54.4 ± 3.3% | 53.0 ± 3.7% | – | – | – | – | –
3 | CC(=O)OCC1OC(n2cnc3c(N4CCOCC4)nc(F)nc32)C(NS(=O)(=O)c2ccc(C(F)(F)F)cc2)C(OC(C)=O)C1OC(C)=O (centres unmarked) [C28] | 45.4 ± 3 µg/mL (≈ 63.2 µM) | 576 ± 14.9 µg/mL (≈ 801 µM) | 633 ± 13.6 µg/mL (≈ 881 µM) | 69.4 ± 4.9% | 44 ± 4.3% | 42.9 ± 0.7% | – | – | – | – | –
4 | CC(=O)OCC1OC(n2cnc3c(N4CCOCC4)ncnc32)C(NS(=O)(=O)c2cccc(C(F)(F)F)c2)C(OC(C)=O)C1OC(C)=O (centres unmarked) [C29] | 64.8 ± 3.1 µg/mL (≈ 92.5 µM) | 353 ± 18.7 µg/mL (≈ 504 µM) | 88.4 ± 6.3 µg/mL (≈ 126 µM) | 69.8 ± 4.3% | 53.4 ± 0.8% | 64.9 ± 4.7% | – | – | – | – | –
5 | CC(=O)OCC1OC(n2cnc3c(N4CCOCC4)ncnc32)C(NS(=O)(=O)c2cccc(OC(F)(F)F)c2)C(OC(C)=O)C1OC(C)=O (centres unmarked) [C35] | 17 ± 1.4 µg/mL (≈ 23.7 µM) | 457 ± 10.2 µg/mL (≈ 638 µM) | 33.9 ± 0.5 µg/mL (≈ 47.3 µM) | 67.9 ± 3.3% | 49.1 ± 1.6% | 68.9 ± 2.0% | – | – | – | – | –
6 | CNCC(=O)N[C@@H](CO)C(=O)N[C@H]1[C@H](O)[C@@H](O)[C@H](n2ccc(N)nc2=O)O[C@@H]1C(N)=O [Ningnanmycin, reference compound] | – | – | – | 54.5 ± 3.3% | – | 60.8 ± 3.1% | 258 ± 7.6 µg/mL (≈ 581 µM) | 67.3 ± 3.5 µg/mL (≈ 152 µM) | 71.2 ± 6.1% | 285 ± 5.3 µg/mL (≈ 644 µM) | –
7 | CC(=O)OCC1OC(n2cnc3c(N4CCOCC4)ncnc32)C(NS(=O)(=O)c2c(C)cc(C)cc2C)C(OC(C)=O)C1OC(C)=O (centres unmarked) [C21] | 61.6 ± 5.3 µg/mL (≈ 91.3 µM) | 83.2 ± 3.7 µg/mL (≈ 123 µM) | 74 ± 5.1 µg/mL (≈ 110 µM) | 66.9 ± 1.8% | 68.7 ± 4.5% | 60.7 ± 2.5% | – | – | – | – | –
8 | CC(=O)OCC1OC(n2cnc3c(N4CCOCC4)ncnc32)C(NS(=O)(=O)c2cccc([N+](=O)[O-])c2)C(OC(C)=O)C1OC(C)=O (centres unmarked) [C5] | 63.8 ± 5.3 µg/mL (≈ 94.1 µM) | 622 ± 14.7 µg/mL (≈ 918 µM) | 2280 ± 24.8 µg/mL (≈ 3370 µM) | 60.3 ± 2.5% | 47.5 ± 1.4% | 43.3 ± 2.3% | – | – | – | – | –
9 | CC(=O)OCC1OC(n2cnc3c(N4CCOCC4)nc(N)nc32)C(NS(=O)(=O)c2c(C)cc(C)cc2C)C(OC(C)=O)C1OC(C)=O (centres unmarked) [C22] | 26.2 ± 1.3 µg/mL (≈ 38 µM) | 13.7 ± 1.6 µg/mL (≈ 19.9 µM) | 38 ± 3.5 µg/mL (≈ 55.1 µM) | 67.6 ± 1.9% | 61.3% | 61.2 ± 1.6% | – | – | – | – | 61.3 ± 4.5%
10 | O=S(=O)(NC1C(O)C(O)C(CO)OC1n1cnc2c(N3CCOCC3)nc(F)nc21)c1ccc(OC(F)(F)F)cc1 (centres unmarked) [C38] | 442 ± 12.6 µg/mL (≈ 726 µM) | 421 ± 7.4 µg/mL (≈ 692 µM) | 474 ± 27.7 µg/mL (≈ 779 µM) | 51.54 ± 0.3% | 51.6 ± 0.5% | 46.5 ± 1.0% | – | – | – | – | –

Further lines, with some results ahead:

Row | EC50 (PMMoV [1]; [4]) | EC50 (PMMoV [2]; [4]) | EC50 (PMMoV [3]; [4]) | Structure (SMILES) | Curative activity (PMMoV [1]; [4]) | pest or weed control at 500 µg/mL (PMMoV [2]; [5]) | Protective activity (PMMoV [3]; [4]) | EC50 (PMMoV [1]) | EC50 (PMMoV [2]) | pest or weed control at 500 µg/mL (PMMoV [2]) | EC50 (PMMoV [3]) | Inactivating activity (PMMoV [2]; [5])
11 | 23.8 ± 5.5 µg/mL (≈ 34.7 µM) | 38 ± 4.4 µg/mL (≈ 55.5 µM) | 28.7 ± 4.4 µg/mL (≈ 41.9 µM) | CC(=O)OCC1OC(n2cnc3c(N4CCOCC4)nc(Cl)nc32)C(NS(=O)(=O)c2ccc(F)cc2)C(OC(C)=O)C1OC(C)=O (centres unmarked) [C32] | 68.0 ± 2.7% | 67.9 ± 5.1% | 68.9 ± 2.0% | – | – | – | – | –
12 | 11.5 ± 4.4 µg/mL (≈ 16.5 µM) | 198 ± 16.1 µg/mL (≈ 285 µM) | 388 ± 16.6 µg/mL (≈ 557 µM) | CC(=O)OCC1OC(n2cnc3c(N4CCOCC4)nc(F)nc32)C(NS(=O)(=O)c2ccc([N+](=O)[O-])cc2)C(OC(C)=O)C1OC(C)=O (centres unmarked) [C3] | 67.0 ± 3.6% | 68.9 ± 4.9% | 57.5 ± 4.3% | – | – | – | – | –
13 | 20.9 ± 3 µg/mL (≈ 30.7 µM) | 458.1 ± 3.3 µg/mL (≈ 673 µM) | 596 ± 10.9 µg/mL (≈ 876 µM) | COc1ccc(S(=O)(=O)NC2C(OC(C)=O)C(OC(C)=O)C(COC(C)=O)OC2n2cnc3c(N4CCOCC4)nc(F)nc32)cc1 (centres unmarked) [C13] | 72.5 ± 2.6% | 47.3 ± 2.7% | 46.5 ± 3.4% | – | – | – | – | –
14 | 36.7 ± 3.7 µg/mL (≈ 56.4 µM) | 25.5 ± 4 µg/mL (≈ 39.2 µM) | 159 ± 11.8 µg/mL (≈ 245 µM) | CC(=O)OCC1OC(n2cnc3c(N4CCOCC4)nc(F)nc32)C(NS(=O)(=O)c2ccccc2)C(OC(C)=O)C1OC(C)=O (centres unmarked) [C19] | 69.5 ± 4.7% | 69.7 ± 1.9% | 59.8 ± 3.6% | – | – | – | – | –
15 | 33.3 ± 1.2 µg/mL (≈ 49.9 µM) | 103 ± 9.1 µg/mL (≈ 155 µM) | 267 ± 8.6 µg/mL (≈ 401 µM) | CC(=O)OCC1OC(n2cnc3c(N4CCOCC4)ncnc32)C(NS(=O)(=O)c2ccc(Cl)cc2)C(OC(C)=O)C1OC(C)=O (centres unmarked) [C9] | 70.9 ± 4.9% | 65.8 ± 3.9% | 58.9 ± 4.0% | – | – | – | – | –
16 | 11.3 ± 3.3 µg/mL (≈ 15.9 µM) | 240 ± 17.8 µg/mL (≈ 338 µM) | 145 ± 7.7 µg/mL (≈ 204 µM) | CC(=O)OCC1OC(n2cnc3c(N4CCOCC4)nc(Cl)nc32)C(NS(=O)(=O)c2c(C)cc(C)cc2C)C(OC(C)=O)C1OC(C)=O (centres unmarked) [C23] | 69.0 ± 3.5% | 55.4 ± 2.6% | 57.4 ± 1.6% | – | – | – | – | –
17 | 16.1 ± 2.7 µg/mL (≈ 22.6 µM) | 84 ± 2.8 µg/mL (≈ 118 µM) | 140 ± 9.5 µg/mL (≈ 197 µM) | CC(=O)OCC1OC(n2cnc3c(N4CCOCC4)ncnc32)C(NS(=O)(=O)c2ccccc2Br)C(OC(C)=O)C1OC(C)=O (centres unmarked) [C17] | 70.5 ± 3.8% | 59.9 ± 4% | 61.0 ± 5.3% | – | – | – | – | –
18 | 281 ± 10.3 µg/mL (≈ 427 µM) | 2415 ± 17.2 µg/mL (≈ 3670 µM) | 793 ± 17.1 µg/mL (≈ 1210 µM) | CC(=O)OCC1OC(n2cnc3c(N4CCOCC4)ncnc32)C(NS(=O)(=O)c2ccc(C#N)cc2)C(OC(C)=O)C1OC(C)=O (centres unmarked) [C7] | 55.8 ± 1.3% | 36.6 ± 3.2% | 44.7 ± 1.4% | – | – | – | – | –
19 | 30.1 ± 3.5 µg/mL (≈ 45.1 µM) | 28.5 ± 4.2 µg/mL (≈ 42.7 µM) | 292 ± 17.6 µg/mL (≈ 438 µM) | CC(=O)OCC1OC(n2cnc3c(N4CCOCC4)nc(Cl)nc32)C(NS(=O)(=O)c2ccccc2)C(OC(C)=O)C1OC(C)=O (centres unmarked) [C20] | 74.8 ± 4.8% | 72 ± 4.2% | 54.8 ± 2.8% | – | – | – | – | –
20 | 22.2 ± 3.4 µg/mL (≈ 33.3 µM) | 16.3 ± 1.9 µg/mL (≈ 24.4 µM) | 17.8 ± 2.1 µg/mL (≈ 26.7 µM) | CC(=O)OCC1OC(n2cnc3c(N4CCOCC4)ncnc32)C(NS(=O)(=O)c2cccc(Cl)c2)C(OC(C)=O)C1OC(C)=O (centres unmarked) [C10] | 62.1 ± 5.8% | 60.5% | 67.0 ± 4.3% | – | – | – | – | 60.5 ± 1.8%
21 | 51.1 ± 3.6 µg/mL (≈ 69.5 µM) | 184 ± 10 µg/mL (≈ 251 µM) | 534 ± 14.9 µg/mL (≈ 726 µM) | CC(=O)OCC1OC(n2cnc3c(N4CCOCC4)nc(Cl)nc32)C(NS(=O)(=O)c2ccc(C(F)(F)F)cc2)C(OC(C)=O)C1OC(C)=O (centres unmarked) [C27] | 69.9 ± 3.6% | 62.4 ± 4.7% | 45.0 ± 3.4% | – | – | – | – | –
22 | 61 ± 5.4 µg/mL (≈ 85.7 µM) | 593 ± 13.7 µg/mL (≈ 833 µM) | 103 ± 6.4 µg/mL (≈ 145 µM) | CC(=O)OCC1OC(n2cnc3c(N4CCOCC4)ncnc32)C(NS(=O)(=O)c2ccc(Br)cc2)C(OC(C)=O)C1OC(C)=O (centres unmarked) [C15] | 65.6 ± 3.4% | 47.7 ± 0.69% | 62.5 ± 3.3% | – | – | – | – | –
